Laboratory results from ChEMBL document CHEMBL1133601, “Methyl-substituted dispiro-1,2,4,5-tetraoxanes: correlations of structural studies with antimalarial activity” (J Med Chem, 2000).

Assays:
[1] = test system: Plasmodium falciparum; assay: In vitro antimalarial activity against Plasmodium falciparum D6 (Sierra Leone); assay type: functional, organism-based
[2] = test system: Plasmodium falciparum; assay: In vitro antimalarial activity against Plasmodium falciparum W2 (Indochina); assay type: functional, organism-based

**Q.** With `CC1(C)CCCCC12OOC1(CCCCC1(C)C)OO2` (stereo unspecified) as the compound, how does the IC50 [1] read?
**A.** The IC50 was greater than 1000 nM.

**Q.** And the IC50 [2]?
**A.** Its IC50 is greater than 1000 nM.

**Q.** What does the source list for `C[C@@H]1CCC[C@@H](C)C12OOC1(OO2)[C@@H](C)CCC[C@@H]1C`?
**A.** IC50 [1]: > 1000 nM; IC50 [2]: > 1000 nM

**Q.** Which results are given for `C[C@@H]1CC[C@H]2[C@@H](C)C(=O)O[C@@H]3O[C@@]4(C)CC[C@@H]1[C@]32OO4` [ARTEMISININ]?
**A.** IC50 [1]: 8.4 nM; IC50 [2]: 7.3 nM
